{"source": "paper PMC10611578", "about": "“Aβ1-6A2V(D) peptide, effective on Aβ aggregation, inhibits tau misfolding and protects the brain after traumatic brain injury” (Molecular Psychiatry, 2023)", "key": {"[1]": {"system": "abnormal tau in WT TBI mouse brain homogenate; C. elegans", "assay": "Locomotor activity of C. elegans exposed to brain homogenate of WT TBI mice 12 months post-injury", "type": "in vivo, Caenorhabditis elegans (Bristol N2)", "details": "50 µM peptide, pericontusional tissue 12 months post-injury, 30 µg protein/100 worms/100 µL, 7 days after treatment; N = 30", "procedure": "Bristol N2 nematodes were obtained from the Caenorhabditis elegans Genetic Center (CGC, University of Minnesota, Minneapolis, MN, USA) and propagated at 20 °C on solid Nematode Growth Medium (NGM) seeded with E. coli OP50 (CGC) for food. We used the bleaching technique to prepare age-synchronized animals. C. elegans at the first larval stage were then transferred to fresh NGM plates and grown at 20 °C. At the L3-L4 larval stage, nematodes were collected with M9 buffer, centrifuged, and washed twice with 10 mM PBS (pH 7.4) to eliminate bacteria. […] Homogenates from naive or sham mice were administered to worms as controls for 3xTg-AD and aged WT TBI mice, respectively ((30 µg protein/100 worms/100 µL 10 mM PBS, pH 7.4). As an additional negative control, 10 mM PBS, pH 7.4 (100 worms/100 µL) was administered to nematodes. Worms were then plated onto NGM plates seeded with OP50 E. coli, grown at 20 °C, and transferred every day to new NGM plates seeded with E. coli to avoid overlapping generations. The locomotor activity of nematodes was scored 7 days after the treatment in blind conditions and expressed as the body bends/min [26]. […]"}, "[2]": {"system": "tau (P301L mouse brain homogenate), proteinase K", "assay": "Proteolysis of tau in P301L brain homogenate", "type": "biochemical, human tau with P301L mutation, JNPL3 mice", "details": "50 µM Aβ1-6A2V-TAT(D), P301L brain homogenate 30 µg protein/100 µL, 30 min at 37 °C with proteinase K (2.5–10 µg/ml)"}, "[3]": {"system": "insoluble tau (P301L mouse brain homogenate)", "assay": "Detergent insolubility assay of tau in P301L brain lysate", "type": "biochemical, human tau with P301L mutation, JNPL3 mice", "details": "50 µM, 2 h at 25 °C, PBS pH 7.4; mean ± SD, N = 4-5"}, "C. elegans": {"system": "C. elegans", "details": "C. elegans; ref [18]; cited from earlier work"}}, "note": "Square brackets hold non-standard residues; d marks the D form. Peptide text beside a SMILES is read from it.", "data": [{"smiles": "CC(C)[C@@H](NC(=O)[C@H](N)CC(=O)O)C(=O)N[C@H](CCC(=O)O)C(=O)N[C@H](Cc1ccccc1)C(=O)N[C@H](CCCNC(=N)N)C(=O)N[C@H](Cc1c[nH]cn1)C(=O)NCC(=O)NCC(=O)NCC(=O)NCC(=O)NCC(=O)N[C@H](CCCNC(=N)N)C(=O)N[C@H](CCCCN)C(=O)N[C@H](CCCCN)C(=O)N[C@H](CCCNC(=N)N)C(=O)N[C@H](CCCNC(=N)N)C(=O)N[C@H](CCC(N)=O)C(=O)N[C@H](CCCNC(=N)N)C(=O)N[C@H](CCCNC(=N)N)C(=O)N[C@H](CCCNC(=N)N)C(=O)O", "note": "[Aβ1-6A2V-TAT(D)] (H-[dD][dV][dE][dF][dR][dH]GGGGG[dR][dK][dK][dR][dR][dQ][dR][dR][dR]-OH; N-terminus assumed)", "values": [{"measurement": "Reversal of toxic effect of WT TBI brain homogenate in C. elegans", "setting": "[1]", "result": "completely reverted"}, {"measurement": "Susceptibility of tau to degradation by proteases", "setting": "[2]", "result": "increased the susceptibility of tau to degradation by proteases, and this was particularly evident in the presence of proteinase K"}, {"measurement": "Fraction of insoluble tau in P301L brain homogenate", "setting": "[3]", "result": "without affecting the fraction of insoluble tau"}, {"measurement": "Passage through the worm's membrane", "setting": "C. elegans", "result": "only in the presence of the TAT sequence, Aβ1-6A2V(D) can pass through the worm’s membrane"}]}]}
